Results reported in article PMC8196580, “Identification of Kaurane-Type Diterpenes as Inhibitors of Leishmania Pteridine Reductase I” (Molecules, 2021).
Where two headings read alike, the source gives them in different places.

What was measured:
[1] = test system: L. major; test: ChEMBL dataset of pIC50 values against L. major used for the RF model (Table S1); type: cell-based, Leishmania major; further: call rule not given here
Source text: From the ChEMBL database (https://www.ebi.ac.uk/chembl/, accessed on 10 January 2021), we selected a diverse set of 1085 structures that were initially classified according to their predicted activity against L. major.
Excluding these structures minimized the differences in activity values resulting from errors and differences in experimental protocols. […] Standardizer software [JChem, version 16.11.28 (2016), calculation module developed by ChemAxon, https://www.chemaxon.com/, accessed on 20 January 2021] was used to canonize all simplified molecular-input line-entry system (SMILES) codes. After duplicate structures were removed, those with higher pIC50 values were eliminated, facilitating the generation of more restrictive models.

[2] = test system: L. major; parameters: method as in ChEMBL; conditions: ref ChEMBL, cited from earlier work
[3] = Active/Inactive class assigned to the ChEMBL pIC50 value for Random forest model construction, ref ChEMBL
[4] = ChemBL structures with pIC50 values used for Random forest model construction, L. major
[5] = Active/Inactive class assigned to ChemBL structures for Random forest model construction (Table S1)
[6] = ChemBL structures with pIC50 values used for Random forest model construction (Table S1)

| Structure (SMILES) | Outcome [1, 3] | pIC50 Value [2, 4] | Outcome [1, 5] | pIC50 Value [2, 6] |
| --- | --- | --- | --- | --- |
| CC(=O)N1CCN(c2ccc(OC[C@H]3CO[C@](Cn4ccnc4)(c4ccc(Cl)cc4Cl)O3)cc2)CC1 (racemic) [CHEMBL75] | Inactive | 4.62 | – | – |
| COc1cc(NS(C)(=O)=O)ccc1Nc1c2ccccc2nc2ccccc12 [CHEMBL43] | – | – | Active | 5.82 |
| N=C(N)c1ccc(OCCCCCOc2ccc(C(=N)N)cc2)cc1 [CHEMBL55] | Inactive | 4.82 | – | – |
| OC(Cn1cncn1)(Cn1cncn1)c1ccc(F)cc1F [CHEMBL106] | Inactive | 3.79 | – | – |
| CCCCCCCCCCCCCCCCOP(=O)([O-])OCC[N+](C)(C)C [CHEMBL125] | Inactive | 4.44 | – | – |
| COC(=O)C1=C(C)NC(C)=C(C(=O)OC)C1c1ccccc1[N+](=O)[O-] [CHEMBL193] | Inactive | 3.74 | – | – |
| C[C@@H](c1ncncc1F)[C@](O)(Cn1cncn1)c1ccc(F)cc1F [CHEMBL638] | Active | 5.21 | – | – |
| N=C(N)c1ccc(OCCCCCOc2ccc(C(=N)N)cc2)cc1.O=S(=O)(O)CCO [CHEMBL935] | Inactive | 4.08 | – | – |
| COCCOC(=O)C1=C(C)NC(C)=C(C(=O)OC(C)C)C1c1cccc([N+](=O)[O-])c1 (stereo not shown) [CHEMBL1428] | Inactive | 4.51 | – | – |
| COC(=O)C1=C(C)NC(C)=C(C(=O)OCCN(C)Cc2ccccc2)C1c1cccc([N+](=O)[O-])c1 (stereo not shown) [CHEMBL1484] | Inactive | 4.66 | – | – |
| CCOC(=O)C1=C(COCCN)NC(C)=C(C(=O)OC)C1c1ccccc1Cl (stereo not shown) [CHEMBL1491] | – | – | – | 5.47 |
| COc1ccc(CCN(C)CCCC(C#N)(c2ccc(OC)c(OC)c2)C(C)C)cc1OC (stereo not shown) [CHEMBL6966] | – | 4.39 | – | – |
| O=C(/C=C/c1ccc(O)cc1)c1ccccc1 [CHEMBL7747] | – | – | Active | 5.40 |
| CN(C)Cc1ccc(Nc2c3ccc(N)cc3nc3cc(N)ccc23)cc1 [CHEMBL34804] | – | – | Active | 5.30 |
| CN(C)c1ccc(Nc2c3ccccc3nc3ccccc23)cc1 [CHEMBL34941] | – | – | Active | 6.05 |
| CN(C)Cc1ccc(Nc2c3ccc(Cl)cc3nc3cc(Cl)ccc23)cc1 [CHEMBL36404] | – | – | Active | 5.70 |
| CN(C)c1ccc2c(Nc3ccccc3)c3ccc(N(C)C)cc3nc2c1 [CHEMBL37644] | – | – | Active | 7.52 |
| c1ccc(Nc2c3ccccc3nc3ccccc23)cc1 [CHEMBL49436] | – | – | Active | 5.57 |
| CCC(C)n1ncn(-c2ccc(N3CCN(c4ccc(OCC5COC(Cn6cncn6)(c6ccc(Cl)cc6Cl)O5)cc4)CC3)cc2)c1=O (stereo not shown) [CHEMBL64391] | – | – | Active | 5.70 |
| c1cncc(-c2nc3ccccc3[nH]2)c1 [CHEMBL83103] | – | – | Active | 5.48 |
| Nc1ccc(Nc2c3ccccc3nc3ccccc23)cn1 [CHEMBL84678] | – | – | Active | 5.41 |
| CCN(C)c1ccc(Nc2c3ccccc3nc3ccccc23)cc1 [CHEMBL86724] | – | – | Active | 6.00 |
| CCCCCCNc1ccc(Nc2c3ccc(N(C)C)cc3nc3cc(N(C)C)ccc23)cc1 [CHEMBL86823] | – | – | Active | 6.80 |
| CCCCCCN(CCCCCC)c1ccc(Nc2c3ccccc3nc3ccccc23)cc1 [CHEMBL88123] | – | – | Active | 6.62 |
| CCCCCCN(C)c1ccc(Nc2c3ccc(N(C)C)cc3nc3cc(N(C)C)ccc23)cc1 [CHEMBL88461] | – | – | Active | 7.15 |
| CCCCCCNc1ccc(Nc2c3ccccc3nc3ccccc23)cc1OC [CHEMBL88507] | – | – | Active | 6.40 |
| CCCCCCN(C)c1ccc(Nc2c3ccccc3nc3ccccc23)cc1OC [CHEMBL88682] | – | – | Active | 6.22 |

| Structure (SMILES) | Outcome [1, 3] | pIC50 Value [2, 4] | Outcome [1, 5] | pIC50 Value [2, 6] |
| --- | --- | --- | --- | --- |
| CCCN(CCC)c1ccc(Nc2c3ccccc3nc3ccccc23)cc1 [CHEMBL88980] | – | – | Active | 6.70 |
| CCCCCN(CCCCC)c1ccc(Nc2c3ccccc3nc3ccccc23)cc1 [CHEMBL89031] | – | – | Active | 6.80 |
| NCCNCCc1ccc(Nc2c3ccccc3nc3ccccc23)cc1 [CHEMBL89150] | – | – | Active | 6.15 |
| c1ccc2c(Nc3ccc(NC4CCCCC4)cc3)c3ccccc3nc2c1 [CHEMBL89171] | – | – | Active | 6.26 |
| CCCCCCNc1ccc(Nc2c3ccc(Cl)cc3nc3ccc(OC)cc23)cc1OC [CHEMBL89400] | – | – | Active | 6.30 |
| CCN(CC)CCCNc1ccc(Nc2c3ccccc3nc3ccccc23)cc1 [CHEMBL89458] | – | – | Active | 6.70 |
| CCN(CC)CCCc1ccc(Nc2c3ccccc3nc3ccccc23)cc1 [CHEMBL89519] | – | – | Active | 6.52 |
| CCCCCNCc1ccc(Nc2c3ccccc3nc3ccccc23)cc1 [CHEMBL89683] | – | – | Active | 5.70 |
| CCCCCCOc1ccc(Nc2c3ccccc3nc3ccccc23)cc1 [CHEMBL89758] | – | – | Active | 6.00 |
| c1ccc2c(Nc3ccc(NC4CCCC4)cc3)c3ccccc3nc2c1 [CHEMBL90679] | – | – | Active | 6.35 |
| c1ccc2c(Nc3ccc(CN4CCCC4)cc3)c3ccccc3nc2c1 [CHEMBL91079] | – | – | Active | 6.70 |
| CCN(CC)CCNc1ccc(Nc2c3ccccc3nc3ccccc23)cc1OC [CHEMBL92012] | – | – | Active | 5.80 |
| CNc1ccc(Nc2c3ccccc3nc3ccccc23)cc1OC [CHEMBL92157] | – | – | Active | 5.44 |
| C=CC(C)(C)c1cc(/C=C/C(=O)c2ccc(O)cc2)c(OC)cc1O [CHEMBL139702] | Inactive | 4.85 | – | – |
| COc1ccc(/C=C/C(=O)c2ccccc2O)c(OC)c1 [CHEMBL143265] | – | – | Active | 5.34 |
| COc1ccc(/C=C/C(=O)c2ccccc2)c(OC)c1 [CHEMBL144626] | – | – | Active | 5.40 |
| NP(=O)(OCc1ccc([N+](=O)[O-])cc1)N(CCCl)CCCl (stereo not shown) [CHEMBL144896] | Inactive | 4.52 | – | – |
| c1ccc(-c2nc3ccccc3[nH]2)cc1 [CHEMBL153535] | – | – | Active | 5.46 |
| CC(C)=CCC/C(C)=C/CC/C(C)=C/COc1ccc2ccc(=O)oc2c1 [CHEMBL156127] | Inactive | 4.88 | – | – |
| O=[N+]([O-])c1ccc2nc(-c3cccnc3)[nH]c2c1 [CHEMBL159327] | – | – | Active | 5.48 |
| C[C@H]1COC2=C1C(=O)C(=O)c1c2ccc2c1CCCC2(C)C [CHEMBL187460] | Inactive | 4.74 | – | – |
| O=[N+]([O-])c1ccc(-c2nnc(N3CCCCC3)s2)s1 [CHEMBL191691] | Inactive | 3.82 | – | – |
| CC(=O)N1CCN(c2nnc(-c3ccc([N+](=O)[O-])o3)s2)CC1 [CHEMBL192375] | – | – | Active | 5.96 |
| CC(=O)N1CCN(c2nnc(-c3ccc([N+](=O)[O-])s3)s2)CC1 [CHEMBL193546] | Inactive | 4.31 | – | – |
| O=[N+]([O-])c1ccc(-c2nnc(N3CCNCC3)s2)s1 [CHEMBL193685] | Inactive | 3.82 | – | – |
| O=C(c1ccccc1)N1CCN(c2nnc(-c3ccc([N+](=O)[O-])o3)s2)CC1 [CHEMBL195349] | Inactive | 4.93 | – | – |
| O=C(c1ccccc1)N1CCN(c2nnc(-c3ccc([N+](=O)[O-])s3)s2)CC1 [CHEMBL195362] | Inactive | 4.60 | – | – |
